Results on one compound are retold here after patent US11904020B2, “Bicyclic peptide ligands specific for TREM2” (Bicycle Tx Limited, priority 2021, dated 2024).

pEC50, pKd: −log10 of the molar value. *1 amine or outer side, *2 acyl side, *3 side chain or, on linkers, in order; H or OH if unused. Where a SMILES comes first, the peptide text is derived from it. Bridges are numbered along the chain shown (N, C = ends). TATA = O=C(CC[*:1])N1CN(C(=O)CC[*:2])CN(C(=O)CC[*:3])C1

One experiment deals with T1, TREM2 receptor (Homo sapiens, UniProt Q9NZC2).
T1 construct: Both parental (TREM2 expressing) and isogenic TREM2 KO iPSC macrophages were plated; endogenous in cells; host or cells: human iPSC-derived macrophages (parental, TREM2 expressing)
T1 sequence (Q9NZC2 19-230): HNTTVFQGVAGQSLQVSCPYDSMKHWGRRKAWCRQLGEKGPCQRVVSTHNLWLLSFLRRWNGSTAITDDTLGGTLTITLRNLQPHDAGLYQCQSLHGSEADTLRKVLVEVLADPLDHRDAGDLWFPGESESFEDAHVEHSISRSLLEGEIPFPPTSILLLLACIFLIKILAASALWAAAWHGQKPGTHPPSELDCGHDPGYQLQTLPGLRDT
Put plainly: pSYK Homogenous Time Resolved Fluorescence (HTRF) assay in iPSC macrophages. It is filed as cell-based. The protocol:
Quantitative assessment of total and phospho (Tyr 525/526) SYK was performed on iPSC macrophages using CisBio total and phospho-SYK HTRF kits (catalogue numbers 64SYKTPGG and 64SYKY525-PEG respectively). Human iPSC macrophage precursors derived from embryoid bodies were plated in 96 well plates (Perkin Elmer Cell Carrier ultra, black walled plates, #6055800) at a density of 40 k cells per well in 100 μl macrophage media (XVIVO15 (Lonza, #BE04-418F), 1% Penicillin-Streptomycin (Gibco, #15140-122), 1% GlutaMAX™ Supplement (Gibco, #35050-038), 0.1% M-CSF (Invitrogen, #PHC9501)). Cells were grown for 7 days to induce full differentiation to iPSC macrophages. Both parental (TREM2 expressing) and isogenic TREM2 KO iPSC macrophages were plated to test for specificity of peptide binding. Following differentiation, cells were stimulated for 5 mins with either the control TREM2 activating antibody (R&D systems, #AF1828), a human IgG control (R&D systems, #AB-108-C), or a 10 point CRC of bicyclic peptide (serial 2 fold dilutions from a starting concentration of 100 μM). Following stimulation the media was removed, and cells were lysed in 50 μl lysis buffer (supplied with the kit) per well. Cells were incubated in LB3 for 30 mins with shaking at room temperature. Following lysis, 16 μl of sample was removed and added to a white 384 well plate (ProxiPlate-384 Plus (Perkin Elmer, #6008280)) and 4 μl of pre-mixed antibody solution was added to each well of the plate. The plate was incubated overnight at room temperature, and the following day, […] was measured at 665 nm and 620 nm using a Pherastar FSX. The same cell lysate was used to assess total and phosphorylated SYK, to enable the generation of a ratio of phosphorylated SYK in each sample.
A general note: Time-resolved FRET reads energy transfer from a long-lived donor to a nearby acceptor.

The target in experiment [1] is TREM2 extracellular domain (ECD) (residues 19-131, C-terminally biotinylated, deglycosylated or glycosylated) (Homo sapiens, UniProt Q9NZC2). Put plainly: biochemical.
For experiment [2], the target named is TREM2 extracellular domain (ECD). Put plainly: Bio-Layer Interferometry (BLI) direct binding assay, cyno. To be noted: Table 4A. The protocol: Traces were analysed using Octet Software (Version 11.0).

As to `C[C@H](N)C(=O)N[C@H]1CSCCC(=O)N2CN3CN(C2)C(=O)CCSC[C@H](NC(=O)[C@H](Cc2ccc(O)cc2)NC(=O)[C@H](CCC(=O)O)NC(=O)[C@H](CO)NC1=O)C(=O)N[C@@H](Cc1ccccc1)C(=O)N[C@@H](Cc1c[nH]c2ccccc12)C(=O)N1CCC[C@H]1C(=O)N[C@@H](Cc1ccccc1)C(=O)N[C@@H](Cc1ccc(O)cc1)C(=O)N[C@@H](Cc1c[nH]cn1)C(=O)N[C@H](C(=O)N[C@@H](C)C(N)=O)CSCCC3=O` [BCY16054, A-(SEQ ID NO: 1)-A] (H-ACSEYCFWPFYHCA-NH2; linker 2-6-13 via TATA; N-terminus and C-terminus assumed), the pEC50 – broadly, the negative decadic logarithm of the EC50, by convention in mol/L – at TREM2 receptor was 4.97. Further, the Kd (in general, a measure of binding affinity in units of concentration) in experiment [1] (Human BLI (Kd; nM) (deglycosylated), Table 4A, deglycosylated human TREM2 ECD, steady-state KD, 25° C.) was determined as 700 nM; in experiment [2] it was 3300 nM. The pKd (in general, −log10 of the Kd, conventionally taken in molar units) in experiment [1] (KD, binding to the human TREM2 extracellular domain in the BLI assay, FIGS. 1A to 1D) is ~6.15.
